In patent US20260274867A1, “PYRIDO[4,3-D]PYRIMIDINE DERIVATIVES AS MUTANT KRAS G12C INHIBITORS FOR THE TREATMENT OF CANCER” (Frontier Medicines Corporation, priority 2023, published 2026):

These compounds were tested against T1, KRAS G12C (GMPPNP-loaded, Cys-light, amino acids 1-169) and cRAF Ras-binding domain interaction (Homo sapiens, UniProt P01116, C118S/C51S/C80L/G12C) (assay: Inhibition of KRAS G12C and cRAF binding (AlphaScreen)). Conditions: KRAS G12C preloaded with GMPPNP, 2 hours compound incubation, room temperature.
T1 construct: truncated version comprising amino acids 1-169
T1 sequence (P01116 1-169 isoform P01116-2 G12C/C51S/C80L/C118S): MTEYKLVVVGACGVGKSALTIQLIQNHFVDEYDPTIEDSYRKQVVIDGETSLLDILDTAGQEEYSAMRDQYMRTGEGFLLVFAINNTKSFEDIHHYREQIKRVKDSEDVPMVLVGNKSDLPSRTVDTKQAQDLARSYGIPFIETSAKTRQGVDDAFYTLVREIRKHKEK
Procedure: The AlphaScreen technology was used to determine IC50s for compound inhibition of KRAS G12C (present as the Cys-light (C51S, C80L and C118S), truncated version comprising amino acids 1-169) and cRAF interaction. Compounds were diluted in 100% DMSO and each compound concentration was spotted at 200 nl/well onto low volume, white 384 well plates. The KRAS G12C contained a biotin-AviTag and the cRaf, as Ras-binding domain (amino acids 50-131, RBD), was GST-tagged. KRAS G12C was preloaded with the GTP analogue Guanosine 5′-[…] (GMPPNP). The KRAS G12C was diluted in 25 mM Hepes, pH 7.4, 150 mM NaCl, 5 mM MgCl2, 0.01% TritonX-100 and 10 μM GMPPNP and added at 10 ul/well to compound-spotted plates resulting in a DMSO concentration of 2%. Plates were incubated for 2 hours. A mixture of RBD and the AlphaScreen streptavidin donor and glutathione acceptor beads diluted in 25 mM Hepes, pH 7.4, 150 mM NaCl, 5 mM MgCl2, 0.01% TritonX-100 and 2% DMSO was then added at 10 ul/well and incubated for 60-90 minutes before the samples were read for emission at 570 nm after excitation of the donor beads at 680 nm. All incubations were performed at room temperature. The final top compound concentration was 50 μM with 1:3 titrations for 10-point dose response curves. Final assay conditions were 0.5 nM KRAS G12C, 0.75 nM RBD and 5 μg/ml each of AlphaScreen donor and acceptor beads. IC50s were determined using nonlinear regression fit of [inhibitor] vs. response (4 parameters).
A counter assay was also set up to rule out inhibitors of the AlphaScreen technology itself. Compound plates were incubated for 2 hours as above with buffer only. The AlphaScreen beads were added as above except biotin-AviTag-GST was substituted for the RBD. Samples were read and analyzed as above.
`CCc1c(F)ccc2cccc(-c3ncc4c(N5CCN(C(=O)/C(F)=C/c6ccnc(C)n6)[C@@H](CC#N)C5)nc(OC[C@@]56CCCN5C[C@H](F)C6)nc4c3F)c12` [Compound 9, 2-((S)-4-(7-(8-ethyl-7-fluoronaphthalen-1-yl)-8-fluoro-2-(((2R,7aS)-2-fluorotetrahydro-1H-pyrrolizin-7a(5H)-yl)methoxy)pyrido[4,3-d]pyrimidin-4-yl)-1-((Z)-2-fluoro-3-(2-methylpyrimidin-4-yl)acryloyl)piperazin-2-yl)acetonitrile] gave an IC50 of under 10 nM. In the case of `Cc1nccc(/C=C(\F)C(=O)N2CCN(c3nc(OC[C@@]45CCCN4C[C@H](F)C5)nc4c(F)c(-c5cccc6ccc(F)c(Cl)c56)ncc34)C[C@@H]2CC#N)n1` [Compound 5, 2-((S)-4-(7-(8-chloro-7-fluoronaphthalen-1-yl)-8-fluoro-2-(((2R,7aS)-2-fluorotetrahydro-1H-pyrrolizin-7a(5H)-yl)methoxy)pyrido[4,3-d]pyrimidin-4-yl)-1-((Z)-2-fluoro-3-(2-methylpyrimidin-4-yl)acryloyl)piperazin-2-yl)acetonitrile], the IC50 is reported as under 10 nM. `Cc1nccc(/C=C(\F)C(=O)N2CC[C@@H](N(C)c3nc(OC[C@@]45CCCN4C[C@H](F)C5)nc4c(F)c(-c5cccc6ccc(F)c(F)c56)ncc34)C2)n1` [Compound 38] was tested, and the IC50 was under 10 nM. Compound `N#CC[C@H]1CN(c2nc(OC[C@@]34CCCN3C[C@H](F)C4)nc3c(F)c(-c4cccc5cccc(F)c45)ncc23)CCN1C(=O)/C(F)=C/CN1[C@@H]2CC[C@H]1COC2` [Compound 28] has an IC50 of at least 500 nM. Work on `Cc1cc(/C=C(\F)C(=O)N2CCN(c3nc(C)nc4c(F)c(-c5cc(O)cc(Cl)c5C5CC5)ncc34)C[C@@H]2CC#N)nc(C)n1` [Compound 57] yielded an IC50 of under 10 nM. With `Cc1cc(/C=C(\F)C(=O)N2CCN(c3ncnc4c(F)c(-c5cc(O)cc(Cl)c5C5CC5)ncc34)C[C@@H]2CC#N)nc(C)n1` [Compound 58] the IC50 was under 10 nM. `C#Cc1c(F)ccc2cccc(-c3ncc4c(N5CCN(C(=O)/C(F)=C/c6ccnc(C)n6)[C@@H](CC#N)C5)nc(OC[C@@]56CCCN5C[C@H](F)C6)nc4c3F)c12` [Compound 30] gave an IC50 of under 10 nM. In the case of `COc1nc(N(C)[C@@H]2CCN(C(=O)/C(F)=C/c3cc(C)nc(C)n3)C2)c2cnc(-c3cccc4ccc(F)c(F)c34)c(F)c2n1` [Compound 48], the IC50 is reported as at least 500 nM. `CCc1c(F)ccc2cccc(-c3ncc4c(N(C)[C@@H]5CCN(C(=O)/C(F)=C/c6ccnc(C)n6)C5)nc(OC[C@@]56CCCN5C[C@H](F)C6)nc4c3F)c12` [Compound 45] gave an IC50 of under 10 nM. `CN1CCC1/C=C(/F)C(=O)N1CCN(c2nc(OC[C@@]34CCCN3C[C@H](F)C4)nc3c(F)c(-c4cccc5ccc(F)c(F)c45)ncc23)C[C@@H]1CC#N` (stereo partly shown) [Compound 12] was tested, and the IC50 was at least 500 nM. `CN1CC[C@@H]1/C=C(\F)C(=O)N1CC[C@@H](N(C)c2nc(OC[C@@]34CCCN3C[C@H](F)C4)nc3c(F)c(-c4cccc5ccc(F)c(F)c45)ncc23)C1` [Compound 13] showed an IC50 of 100 to 500 nM. For `CN1CCC1/C=C(\F)C(=O)N1CCN(c2nc(OC[C@@]34CCCN3C[C@H](F)C4)nc3c(F)c(-c4cccc5ccc(F)c(Cl)c45)ncc23)C[C@@H]1CC#N` (stereo partly drawn) [Compound 16, 2-((2S)-4-(7-(8-chloro-7-fluoronaphthalen-1-yl)-8-fluoro-2-(((2R,7aS)-2-fluorotetrahydro-1H-pyrrolizin-7a(5H)-yl)methoxy)pyrido[4,3-d]pyrimidin-4-yl)-1-((Z)-2-fluoro-3-(1-methylazetidin-2-yl)acryloyl)piperazin-2-yl)acetonitrile], the IC50 was 100 to 500 nM. Work on `Cc1cc(/C=C(\F)C(=O)N2CC[C@@H](N(C)c3nc(OC[C@@]45CCCN4C[C@H](F)C5)nc4c(F)c(-c5cccc(Cl)c5C(F)(F)F)ncc34)C2)nc(C)n1` [Compound 47] yielded an IC50 of under 10 nM. Work on `CC(C)c1noc(/C=C(\F)C(=O)N2CCN(c3nc(OCC45CCCN4CCC5)nc4c(F)c(-c5cccc6cccc(Cl)c56)ncc34)C[C@@H]2CC#N)n1` [Compound 4] yielded an IC50 of under 10 nM. For `Cc1nccc(/C=C(\F)C(=O)N2CCN(c3nc(OCC45CCCN4CCC5)nc4c(F)c(-c5cccc6cccc(Cl)c56)ncc34)C[C@@H]2CC#N)n1` [Compound 2], the IC50 was under 10 nM. `CCc1c(F)ccc2cccc(-c3ncc4c(N5CCN(C(=O)/C(F)=C/c6cc(C)nc(C)n6)[C@@H](CC#N)C5)nc(OC[C@@]56CCCN5C[C@H](F)C6)nc4c3F)c12` [Compound 15] showed an IC50 of under 10 nM. `Cc1cc(/C=C(\F)C(=O)N2CC[C@@H](N(C)c3nc(OC[C@@]45CCCN4C[C@H](F)C5)nc4c(F)c(-c5cccc(Cl)c5C5CC5)ncc34)C2)nc(C)n1` [Compound 46, (Z)-1-((R)-3-((7-(3-chloro-2-cyclopropylphenyl)-8-fluoro-2-(((2R,7aS)-2-fluorotetrahydro-1H-pyrrolizin-7a(5H)-yl)methoxy)pyrido[4,3-d]pyrimidin-4-yl)(methyl)amino)pyrrolidin-1-yl)-3-(2,6-dimethylpyrimidin-4-yl)-2-fluoroprop-2-en-1-one] gave an IC50 of under 10 nM. Compound `Cc1nccc(/C=C(\F)C(=O)N2CC[C@@H](N(C)c3nc(OC[C@@]45CCCN4C[C@H](F)C5)nc4c(F)c(-c5cccc(Cl)c5C(F)(F)F)ncc34)C2)n1` [Compound 43] has an IC50 of under 10 nM. `Cc1nccc(/C=C(\F)C(=O)N2CCN(c3nc(OC[C@@]45CCCN4C[C@H](F)C5)nc4c(F)c(-c5cccc6ccc(F)c(F)c56)ncc34)C[C@@H]2CC#N)n1` [Compound 11, 2-((S)-4-(7-(7,8-difluoronaphthalen-1-yl)-8-fluoro-2-(((2R,7aS)-2-fluorotetrahydro-1H-pyrrolizin-7a(5H)-yl)methoxy)pyrido[4,3-d]pyrimidin-4-yl)-1-((Z)-2-fluoro-3-(2-methylpyrimidin-4-yl)acryloyl)piperazin-2-yl)acetonitrile] gave an IC50 of under 10 nM. `N#CC[C@H]1CN(c2nc(OC[C@@]34CCCN3C[C@H](F)C4)nc3c(F)c(-c4cccc5ccc(F)c(F)c45)ncc23)CCN1C(=O)/C(F)=C/CN1CCOCC1` [Compound 24] gave an IC50 of 100 to 500 nM. In the case of `COc1nc(N(C)[C@@H]2CCN(C(=O)/C(F)=C/c3cc(C)nc(C)n3)C2)c2cnc(-c3cc(O)cc(Cl)c3C3CC3)c(F)c2n1` [Compound 56, (R,Z)-1-(3-((7-(3-chloro-2-cyclopropyl-5-hydroxyphenyl)-8-fluoro-2-methoxypyrido[4,3-d]pyrimidin-4-yl)(methyl)amino)pyrrolidin-1-yl)-3-(2,6-dimethylpyrimidin-4-yl)-2-fluoroprop-2-en-1-one], the IC50 is reported as 100 to 500 nM. `Cc1nsc(/C=C(\F)C(=O)N2CCN(c3nc(OCC45CCCN4CCC5)nc4c3CCN(c3cccc5ccc(F)c(Cl)c35)C4)C[C@@H]2CC#N)n1` [Compound 3] gave an IC50 of under 10 nM. In the case of `Cc1nccc(/C=C(\F)C(=O)N2CC[C@@H](N(C)c3nc(OC[C@@]45CCCN4C[C@H](F)C5)nc4c(F)c(-c5cccc(Cl)c5C5CC5)ncc34)C2)n1` [Compound 39], the IC50 is reported as under 10 nM. In the case of `N#CC[C@H]1CN(c2nc(OC[C@@]34CCCN3C[C@H](F)C4)nc3c(F)c(-c4cccc5cccc(Cl)c45)ncc23)CCN1C(=O)/C(F)=C/CN1[C@@H]2CC[C@H]1COC2` [Compound 21], the IC50 is reported as at least 500 nM. For `COc1nc(N2CCN(C(=O)/C(F)=C/c3cc(C)nc(C)n3)[C@@H](CC#N)C2)c2cnc(-c3cc(O)cc(Cl)c3C3CC3)c(F)c2n1` [Compound 55, (S,Z)-2-(4-(7-(3-chloro-2-cyclopropyl-5-hydroxyphenyl)-8-fluoro-2-methoxypyrido[4,3-d]pyrimidin-4-yl)-1-(3-(2,6-dimethylpyrimidin-4-yl)-2-fluoroacryloyl)piperazin-2-yl)acetonitrile], the IC50 was under 10 nM. With `COC(=O)/C=C(\F)C(=O)N1CCC(N(C)c2nc(OCC34CCCN3CCC4)nc3c2CCN(c2cccc4cccc(Cl)c24)C3)C1` (stereo not shown) [Compound 1] the IC50 was 10 to 100 nM. Work on `CN1CC[C@@H]1/C=C(/F)C(=O)N1CC[C@@H](N(C)c2nc(OC[C@@]34CCCN3C[C@H](F)C4)nc3c(F)c(-c4cccc5ccc(F)c(F)c45)ncc23)C1` [Compound 14] yielded an IC50 of 10 to 100 nM. `CCc1c(F)ccc2cccc(-c3ncc4c(N5CCN(C(=O)/C(F)=C\c6ccnc(C7CC7)n6)[C@@H](CC#N)C5)nc(OC[C@@]56CCCN5C[C@H](F)C6)nc4c3F)c12` [Compound 10] showed an IC50 of 100 to 500 nM.
